Test results: patent publication US9085576B2 (AMGEN INC., priority 2013, dated 2015)

Experiments:
[1] = target: Beta Secretase enzyme (BACE) (Homo sapiens (Human), UniProt P56817); assay: In vitro enzymatic BACE FRET assay; format: biochemical; details: read-out: BACE1 Enzyme assay IC50
[2] = target: Cathepsin D (Cat D) (Homo sapiens (Human), UniProt P07339); assay: In vitro enzymatic Cathepsin D (Cat D) FRET assay; format: biochemical; details: read-out: CatD IC50
Protocol: In Vitro Enzymatic Cathepsin D (Cat D) FRET (Fluorescence Resonance Energy Transfer) Assay
Recombinant Cat D was expressed in CHO cells. The assay buffer for CathepsinD is 0.05 M citrate pH 3.5, 10% DMSO final, 5 mM CHAPS. […] The assays are effectively started by the addition of different FRET substrates (20 nM for Cat D) and the combination is incubated for one hour. The FRET assay is terminated with by addition of Tris buffer, which raises the pH to neutrality, and the fluorescence is determined. […] Proteolytic cleavage of the FRET substrate releases quenching of fluorescence (Cat D excitation 500 nm and emission 580 nm).

[3] = system: Abeta 40; assay: In vivo inhibition of beta-secretase: Abeta 40 reduction in CSF and brain of the rat; details: after 4 hrs; for % reduction of rat CSF levels at 10 pmk / % reduction of rat CSF levels (3 mpk): Abeta 40 in rat CSF; for % reduction of rat CSF levels at 10 pmk / % reduction of rat brain levels at 10 mpk: 10 mpk; for % reduction of rat brain levels at 10 mpk / % reduction of rat brain levels (3 mpk): Abeta 40 in rat brain
Description: In Vivo Inhibition of Beta-Secretase
Several animal models, including mouse, rat, dog, and monkey, may be used to screen for inhibition of beta-secretase activity in vivo following administration of a test compound sample. […] A separate group of animals receive 2% hydroxypropyl methylcellulose, 1% Tween80 alone, containing no test compound, and serve as a vehicle-control group. At the end of the test period, animals are sacrificed and brain tissues, plasma or cerebrospinal fluid are collected. […] Homogenates are centrifuged at 355,000 g, 4° C. for 30 minutes. CSF or brain supernatants are then analyzed for the presence of A-beta peptide by specific sandwich ELISA assays based on ECL (Electrochemiluminescence) technology. For example, rat Abeta40 is measured using biotinylated-4G8 (Signet) as a capture antibody and Fab40 (an in-house antibody specific to the C-terminal of Abeta40) as a detection antibody.
Actual vehicles used: Oral: 2% HPMC, 1% Tween80, pH 2.2

[4] = target: BACE (Homo sapiens (Human), UniProt P56817); assay: In vitro BACE cell-based assay (Aβ40 in conditioned medium, sandwich ELISA)
[5] = target: BACE1 (Homo sapiens (Human), UniProt P56817); details: cited from earlier work
[6] = system: BACE1; details: animals, orally available; cited from earlier work
[7] = system: pigment epithelium of the rat's eye; details: higher compound dose given for three months; cited from earlier work

Cathepsin D (Cat D), sequence (P07339 65-412, species assumed): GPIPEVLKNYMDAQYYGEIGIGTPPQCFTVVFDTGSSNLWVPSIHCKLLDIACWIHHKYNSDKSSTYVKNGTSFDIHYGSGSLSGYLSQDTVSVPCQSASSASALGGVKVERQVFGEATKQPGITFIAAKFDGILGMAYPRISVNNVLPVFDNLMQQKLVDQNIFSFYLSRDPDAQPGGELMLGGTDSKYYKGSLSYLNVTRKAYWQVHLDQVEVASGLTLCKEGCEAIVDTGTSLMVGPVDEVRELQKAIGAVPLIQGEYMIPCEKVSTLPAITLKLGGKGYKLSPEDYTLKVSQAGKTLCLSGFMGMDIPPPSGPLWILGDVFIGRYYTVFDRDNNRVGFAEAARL
Beta Secretase enzyme (BACE), sequence (P56817 46-501): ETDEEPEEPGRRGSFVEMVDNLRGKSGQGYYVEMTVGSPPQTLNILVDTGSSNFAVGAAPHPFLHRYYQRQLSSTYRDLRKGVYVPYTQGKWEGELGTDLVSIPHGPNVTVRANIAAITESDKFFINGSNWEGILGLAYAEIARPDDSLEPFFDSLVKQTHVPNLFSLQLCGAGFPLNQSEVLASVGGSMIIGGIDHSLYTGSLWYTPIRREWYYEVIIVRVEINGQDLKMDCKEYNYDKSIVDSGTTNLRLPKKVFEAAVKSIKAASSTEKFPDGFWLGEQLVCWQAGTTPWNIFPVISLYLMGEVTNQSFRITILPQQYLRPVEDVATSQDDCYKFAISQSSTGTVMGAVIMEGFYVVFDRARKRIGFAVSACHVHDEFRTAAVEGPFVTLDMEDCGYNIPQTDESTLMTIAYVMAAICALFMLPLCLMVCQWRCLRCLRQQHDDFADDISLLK
BACE1 (Homo sapiens (Human), UniProt P56817), sequence (P56817 46-501): as above
BACE, sequence (P56817 46-501, species assumed): as the sequence (P56817 46-501) above

Row | Structure (SMILES) | IC50 [1] [µM] | IC50 [2] [µM] | % reduction of rat CSF levels at 10 pmk [3] [%] | % reduction of rat brain levels at 10 mpk [3] [%] | IC50 [4] [µM] | % reduction of rat CSF levels (3 mpk) [3] | % reduction of rat brain levels (3 mpk) [3] | Aβ reductions in lumbar CSF ([5]; healthy volunteers, oral dosing of 30 or 90 mg) | safety and tolerability ([5]; healthy volunteers) | Aβ-lowering effects [6] | eye assessments ([5]; people of the terminated Ph I dosing trial) | eye toxicity finding [7]
1 | Cc1cc(OC(F)F)cnc1C(=O)Nc1ccc(F)c([C@@]2(C(F)F)N=C(N)O[C@@H]3C[C@@H]32)c1 [Example 237, N-(3-((1R,5S,6R)-3-amino-5-(difluoromethyl)-2-oxa-4-azabicyclo[4.1.0]hept-3-en-5-yl)-4-fluorophenyl)-5-(difluoromethoxy)-3-methylpicolinamide] | 0.0377 | 327 | 72 | 67 | 0.0323 | – | – | – | – | – | – | –
2 | NC1=N[C@@](c2cc(NC(=O)c3cnc(OC(F)F)cn3)ccc2F)(C(F)F)[C@H]2C[C@H]2O1 [Example 238, N-(3-((1R,5S,6R)-3-amino-5-(difluoromethyl)-2-oxa-4-azabicyclo[4.1.0]hept-3-en-5-yl)-4-fluorophenyl)-5-(difluoromethoxy) pyrazine-2-carboxamide] | 0.0214 | 5920 | 8 | 16 | 0.0178 | – | – | – | – | – | – | –
3 | NC1=N[C@](CF)(c2cc(NC(=O)c3ncc(Cl)cc3Cl)ccc2Cl)[C@H]2C[C@H]2O1 [Example 281, N-(3-((1R,5S,6R)-3-amino-5-(fluoromethyl)-2-oxa-4-azabicyclo[4.1.0]hept-3-en-5-yl)-4-chlorophenyl)-3,5-dichloropicolinamide] | 0.0441 | 2870 | 70 | 72 | 0.006 | 55 (3 mpk) % | 34 (3 mpk) % | – | – | – | – | –
4 | Cc1cc(C#N)cnc1C(=O)Nc1ccc(Cl)c([C@@]2(CF)N=C(N)O[C@@H]3C[C@@H]32)c1 [Example 283, N-(3-((1R,5S,6R)-3-amino-5-(fluoromethyl)-2-oxa-4-azabicyclo[4.1.0]hept-3-en-5-yl)-4-chlorophenyl)-5-cyano-3-methylpicolinamide] | 0.031 | 1580 | 75 | 69 | 0.0075 | 61 (3 mpk) % | 44 (3 mpk) % | – | – | – | – | –
5 | COc1cnc(C(=O)Nc2cc(C)c(F)c([C@@]3(C(F)F)N=C(N)O[C@@H]4C[C@@H]43)c2)cn1 [Example 299, N-(3-((1R,5S,6R)-3-amino-5-(difluoromethyl)-2-oxa-4-azabicyclo[4.1.0]hept-3-en-5-yl)-4-fluoro-5-methylphenyl)-5-methoxypyrazine-2-carboxamide] | 0.0305 | 465 | 74 | 62 | 0.014 | – | – | – | – | – | – | –
6 | Cc1cc(NC(=O)c2ncc(Cl)cc2F)cc([C@@]2(C(F)F)N=C(N)O[C@@H]3C[C@@H]32)c1F [Example 302, N-(3-((1R,5S,6R)-3-amino-5-(difluoromethyl)-2-oxa-4-azabicyclo[4.1.0]hept-3-en-5-yl)-4-fluoro-5-methylphenyl)-5-chloro-3-fluoropicolinamide] | 0.0315 | 811 | 37 | 9 | 0.0141 | – | – | – | – | – | – | –
7 | COc1ccc(C(=O)Nc2cc(C)c(F)c([C@@]3(C(F)F)N=C(N)O[C@@H]4C[C@@H]43)c2)nc1 [Example 304, N-(3-((1R,5S,6R)-3-amino-5-(difluoromethyl)-2-oxa-4-azabicyclo[4.1.0]hept-3-en-5-yl)-4-fluoro-5-methylphenyl)-5-methoxypicolinamide] | 0.0522 | 355 | 41 | 20 | 0.0359 | – | – | – | – | – | – | –
8 | COc1cnc(C(=O)Nc2ccc(F)c([C@@]3(C(F)F)N=C(N)O[C@@H]4C[C@@H]43)c2)c(F)c1 [Example 306, N-(3-((1R,5S,6R)-3-amino-5-(difluoromethyl)-2-oxa-4-azabicyclo[4.1.0]hept-3-en-5-yl)-4-fluorophenyl)-3-fluoro-5-methoxypicolinamide] | 0.0419 | 1040 | 13 | −1 | 0.0256 | – | – | – | – | – | – | –
9 | NC1=N[C@@](c2cc(NC(=O)c3ccc(OC(F)F)cn3)ccc2F)(C(F)F)[C@H]2C[C@H]2O1 [Example 312, N-(3-((1R,5S,6R)-3-amino-5-(difluoromethyl)-2-oxa-4-azabicyclo[4.1.0]hept-3-en-5-yl)-4-fluorophenyl)-5-(difluoromethoxy) picolinamide] | 0.0377 | 442 | 30 | −1 | 0.0179 | – | – | – | – | – | – | –
10 | N#Cc1cnc(C(=O)Nc2ccc(F)c([C@@]3(C(F)F)N=C(N)O[C@@H]4C[C@@H]43)c2)c(F)c1 [Example 388, N-(3-((1R,5S,6R)-3-amino-5-(difluoromethyl)-2-oxa-4-azabicyclo[4.1.0]hept-3-en-5-yl)-4-fluorophenyl)-5-cyano-3-fluoropicolinamide] | 0.0352 | 1270 | 21 | 4 | 0.0069 | – | – | – | – | – | – | –
11 | COCc1cc(C#N)cnc1C(=O)Nc1ccc(F)c([C@@]2(C(F)F)N=C(N)O[C@@H]3C[C@@H]32)c1 [Example 391, N-(3-((1R,5S,6R)-3-amino-5-(difluoromethyl)-2-oxa-4-azabicyclo[4.1.0]hept-3-en-5-yl)-4-fluorophenyl)-5-cyano-3-(methoxymethyl)picolinamide] | 0.0116 | 1350 | 54 | 24 | 0.0175 | – | – | – | – | – | – | –
12 | NC1=N[C@@](c2cc(NC(=O)c3cnc(OCC4CC4)cn3)ccc2F)(C(F)F)[C@H]2C[C@H]2O1 [Example 415, N-(3-((1R,5S,6R)-3-amino-5-(difluoromethyl)-2-oxa-4-azabicyclo[4.1.0]hept-3-en-5-yl)-4-fluorophenyl)-5-(cyclopropylmethoxy)pyrazine-2-carboxamide] | 0.043 | 747 | 27 | 14 | 0.0551 | – | – | – | – | – | – | –
13 | NC1=N[C@@](c2cc(NC(=O)c3ncc(Cl)cc3CO)ccc2F)(C(F)F)[C@H]2C[C@H]2O1 [Example 419, N-(3-((1R,5S,6R)-3-amino-5-(difluoromethyl)-2-oxa-4-azabicyclo-[4.1.0]hept-3-en-5-yl)-4-fluorophenyl)-5-chloro-3-(hydroxymethyl)picolinamide] | 0.0332 | 276 | 57 | 42 | 0.0293 | – | – | – | – | – | – | –
14 | C[C@@]1(c2cc(-c3cncnc3)c(F)cc2F)CCSC(N)=N1 [LY2811376, (S)-4-(2,4-difluoro-5-pyrimidin-5-yl-phenyl)-4-methyl-5,6-dihydro-4H-[1,3]thiazin-2-ylamine] | – | – | – | – | – | – | – | Prominent and long-lasting Aβ reductions | safe and well tolerated | profound Aβ-lowering effects | – | –
15 | C[C@@]1(c2cc(-c3cncnc3)c(F)cc2F)CCSC(N)=N1 [LY 2811376] | – | – | – | – | – | – | – | – | – | – | did not show any abnormalities | damaged the pigment epithelium of the rat's eye
